Reference: patent US10919882B2, “Compounds for use in synthesis of peptidomimetics” (THE FEINSTEIN INSTITUTES FOR MEDICAL RESEARCH, priority 2019, dated 2021)

Test: Stability of HOBt aza building blocks with Boc, Fmoc or Phth alpha-amino protection
Type: physicochemical
Text: Assessing the Compatibility of HOBt Aza Building Blocks in the Presence of Traditional Alpha Amino Protecting Groups (e.g. Phth, Fmoc and Boc) with Other Protecting Synthesis and Stability
The issues with stability were observed when the N-1 is protected with R=Boc or Fmoc and R′═H. This is due to the presence of NH that leads to undesirable intramolecular cyclization and formation oxadiazoles (Future Med. Chem. (2011) 3(9), 1139-1164) Org. Biomol. Chem., 2015, 13, 59-63. Boc and Fmoc form an unwanted side reaction of carboxyanhydride in peptide synthesis with acid halogenation reagent (Acc. Chem. Res. 1996, 29, 268-274; J. Am. Chem. Soc. 1996, 118, 9796-9797) and in azapeptide synthesis with hydrazine component, the oxadiazalone will be formed (Journal of Peptide Science 2013, 19, 725-729).

## O=C(On1nnc2ccccc21)N(Cc1ccccc1)N1C(=O)c2ccccc2C1=O
In solution / organic solvents, room temperature
  Isolated Yield and Stability (in solution): Stable in organic solvents such as acetone, dichloromethane, acetonitrile, DMF at room temperature for weeks
Isolated product as solid
  Isolated Yield and Stability (solid form): Stable white solid
